According to US8945627B2, “Micelles for the solubilization of gossypol” (priority 2011, dated 2015):
“And” between values parts separate entries of the source, which are not always exact repeats. Equal entries are not always repeated. Where two headings read alike, the source gives them in different places.

Columns and labels:
[1] = tested on: A549 NSCLC Cells; assay: In vitro cytotoxicity, resazurin cell viability assay; type: cell-based; conditions: Homo sapiens
Protocol: Cytotoxicity was determined using a resazurin cell viability assay. A549 cells were cultured in RPMI1640, supplemented with 10% FBS, 100 IU/mL penicillin, 100 μg/mL streptomycin, and 2 mM of L-glutamine. The cells were incubated at 37° C., 5% CO2 atmosphere. Exponentially grown cells were detached from the T-flask by adding a Trypsin-EDTA solution.
Each drug was dissolved at 10 mM as a stock solution using dimethyl sulfoxide (DMSO). […] The stock solution was diluted with cell culture media and the final concentration of DMSO was less than 0.1%. […] The fraction of viable cells were determined using a Cell titer Blue® dye assay (Promega, USA) by monitoring using fluorescence at 590 nm (emission). The inhibitory drug concentration (IC50) was determined by the median-effect equation using compusyn software (Combosyn Inc., US). The determination of IC50 was performed in three independent experiments.
The half maximal inhibitory drug concentration (IC50) was determined by the median-effect equation:
[formula] using CompuSyn software (Version 1.0, ComboSyn Inc., US). In the median-effect equation, fa is the fraction of affected cells; D is drug concentration; and m is the Hill slope or kinetic order.

[2] = PEG-b-PCL micelle stability tests (drug quantification)
Protocol: (§2) Supernatant was collected and drug contents were analyzed by RP-HPLC analysis.

[3] = tested on: ES-2 ovarian monolayer cells; assay: cells; type: cell-based
[4] = tested on: ES-2 ovarian multicellular spheroids; assay: cells; type: cell-based; conditions: read-out: IC50 values (nM), Spheroids (BLI)
Protocol: Surviving cells after treatment were quantified by scanning bioluminescence of luc-ES-2 cells (IVIS optical imaging system).
The images of FIG. 7 were collected using an inverted light microscope on spheroids treated with PEG5k-b-PCL10k micelles representing 1000 nM of total drug concentration. In advance, to obtain luciferase-expressing ES-2 cells, ES-2 cells were transfected with pGL4 with neomycin resistance using Lipofectamine 2,000.
Bioluminescence of surviving cells was quantified and IC50 value was calculated by using Compusyn.

[5] = type: physicochemical
Protocol: Acetone was evaporated from the aqueous micelle solution under reduced pressure using a rotatory evaporator at 60° C.
(§1) Samples for RP-HPLC were prepared by adding acetonitrile (ACN) into each micelle to break it apart and quantify drugs dissolved in ACN.

[6] = type: physicochemical; remark: listed apart in the source
Protocol: Acetone was evaporated from the aqueous micelle solution under reduced pressure using a rotatory evaporator at 60° C. The thin film of “polymer plus drug mixture” was reconstituted with 1 mL of 0.9% saline at 60° C.
as §1

[7] = 200 mg polymer
Protocol: as §2

[8] = Stability of the poloxamer micelle solution, 24 hours at ambient temperature; conditions: Pluronic F68 micelles, gossypol + paclitaxel
Protocol: The drugs remaining in the solution were quantified by RP-HPLC described above. The micelle solution was centrifuged at 13,000 rpm for 5 minutes and was then filtered with a 0.45 μm nylon filter to remove any drug aggregates in the micelle solution. The concentration of each drug was compared with that of each drug at initial preparation to estimate the stability of micelle solution.

[9] = neutral pH; cited from earlier work
[10] = 1-in-1 PEG5k-b-PCL10k micelles, 200 mg polymer
[11] = 1-in-1 micelles, 10× decreased drug loading
[12] = 2-in-1 CYP + GSP micelles, 200 mg polymer
[13] = 2-in-1 CYP + GSP micelles, 10× decreased drug loading
[14] = 2-in-1 PTX + GSP micelles, 200 mg polymer
[15] = 2-in-1 PTX + GSP micelles, 10× decreased drug loading
[16] = 3-in-1 PTX + CYP + GSP micelles, 200 mg polymer
[17] = 3-in-1 PTX + CYP + GSP micelles, 10× decreased drug loading
[18] = singly-loaded poloxamer 188 micelles
[19] = PEG5k-b-PCL10k micelles, Celltiter Blue readout, read-out: IC50 values (nM), Monolayer (Celltiter Blue)
[20] = PEG5k-b-PCL10k micelles, bioluminescence readout, read-out: IC50 values (nM), Monolayer (BLI)
[21] = PEG5k-b-PCL10k micelles, bioluminescence readout
[22] = polymer 10 mg/ml, CYP + GSP micelles
[23] = polymer 10 mg/ml, PTX + CYP + GSP micelles
[24] = polymer 10 mg/ml, PTX + CYP micelles
[25] = polymer 10 mg/ml, single drug micelles
[26] = polymer 20 mg/ml, PTX + CYP + GSP micelles
[27] = polymer 100 mg/ml, PTX + CYP + GSP micelles
[28] = polymer 200 mg/ml, CYP + GSP micelles
[29] = polymer 200 mg/ml, PTX + CYP + GSP micelles
[30] = polymer 200 mg/ml, PTX + CYP micelles
[31] = 2-in-1 PTX + CYP micelles, 200 mg polymer
[32] = 2-in-1 PTX + CYP micelles, 10× decreased drug loading
[33] = PTX/CYP/GSP poloxamer 188 micelles

With `Cc1cc2c(C(C)C)c(O)c(O)c(C=O)c2c(O)c1-c1c(C)cc2c(C(C)C)c(O)c(O)c(C=O)c2c1O` [Gossypol, gossypol] the IC50 ([1]; A549, 72 h) was 6.5 ± 3.4 µM, the “% Remaining Day 0” value [2, 10] was 100 ± 4.7% and the “% Remaining Day 1” value [2, 10] was 89.4 ± 3.3%. For the same compound, the “% Remaining Day 0” value [2, 11] was 100 ± 5.6%, the “% Remaining Day 1” value [2, 11] was 98.3 ± 3.6% and the “% Remaining Day 0” value [2, 12] was 100 ± 4.9%. The “% Remaining Day 1” value [2, 12] was 89.8 ± 3.7%, the “% Remaining Day 0” value [2, 13] was 100 ± 4.1% and the “% Remaining Day 1” value [2, 13] was 95.4 ± 3.6%. For the same compound, the “% Remaining Day 0” value [2, 14] was 100 ± 4.4%, the “% Remaining Day 1” value [2, 14] was 97.0 ± 2.5% and the “% Remaining Day 0” value [2, 15] was 100 ± 7.1%. For the same compound, the “% Remaining Day 1” value [2, 15] was 89.5 ± 3.8%, the “% Remaining Day 0” value [2, 16] was 100 ± 3.8% and the “% Remaining Day 1” value [2, 16] was 82.3 ± 2.6%. For the same compound, the “% Remaining Day 0” value [2, 17] was 100 ± 3.8%, the “% Remaining Day 1” value [2, 17] was 81.0 ± 3.0% and the “drug level in water” value (2-in-1 poloxamer 188 micelles, gossypol + 17-AAG) was 5.18 ± 0.47 mg/mL. The “drug level in water” value (2-in-1 poloxamer 188 micelles, gossypol + paclitaxel) was 4.65 ± 0.62 mg/mL, the “drug level in water” value (2-in-1 poloxamer 188 micelles, gossypol + paclitaxel, listed as gossypol) was 4.65 mg/mL and the “drug level in water” value [18] was 5.41 ± 0.14 mg/mL. The IC50 [3, 19] was over 100000 nM, the IC50 [3, 20] was over 100000 nM and the IC50 [4, 21] was 4820 nM.

With `CC1=C2C[C@H]3[C@@H](CC=C4C[C@@H](O)CC[C@@]43C)[C@@H]2CC[C@]12O[C@@H]1C[C@H](C)CN[C@H]1[C@H]2C` [CYP, 11-deoxojervine] the “drug loaded” value [5, 22] was 1.50 ± 0.50 mg/mL, the “drug loaded” value [5, 23] was 1.03 ± 0.02 mg/mL and the “drug loaded” value [5, 24] was 0.14 ± 0.06 mg/mL. For the same compound, the “drug loaded” value [5, 25] was 0.05 ± 0.03 mg/mL, the “drug loaded” value [5, 26] was 1.25 ± 0.11 mg/mL and the “drug loaded” value [5, 27] was 4.47 ± 0.38 mg/mL. The “drug loaded” value [5, 28] was 3.23 ± 0.99 mg/mL, the “drug loaded” value [5, 29] was 6.2 mg/mL and 6.20 ± 0.49 mg/mL and the “drug loaded” value [5, 30] was 0.89 ± 0.03 mg/mL. For the same compound, the “drug loaded” value [6, 22] was 0.16 ± 0.04 mg/mL, the “drug loaded” value [6, 23] was 0.21 ± 0.07 mg/mL and the “drug loaded” value [6, 24] was 0.03 ± 0.001 mg/mL. For the same compound, the “drug loaded” value [6, 25] was 0.012 ± 0.002 mg/mL, the “drug loaded” value [6, 26] was 0.27 ± 0.07 mg/mL and the “drug loaded” value [6, 27] was 3.55 ± 0.18 mg/mL. The “drug loaded” value [6, 28] was 3.5 ± 0.3 mg/mL, the “drug loaded” value [6, 29] was 5.1 mg/mL and 5.09 ± 0.29 mg/mL and the “drug loaded” value [6, 30] was 0.08 ± 0.02 mg/mL. The “% Remaining Day 0” value [2, 10] was 100 ± 10.6%, the “% Remaining Day 1” value [2, 10] was 96.3 ± 5.0% and the “% Remaining Day 0” value [2, 11] was 100 ± 7.9%. The “% Remaining Day 1” value [2, 11] was 96.0 ± 4.4%, the “% Remaining Day 0” value [2, 12] was 100 ± 8.2% and the “% Remaining Day 1” value [2, 12] was 91.0 ± 5.3%. For the same compound, the “% Remaining Day 0” value [2, 13] was 100 ± 5.9%, the “% Remaining Day 1” value [2, 13] was 96.5 ± 4.4% and the “% Remaining Day 0” value [2, 31] was 100 ± 11.3%. The “% Remaining Day 1” value [2, 31] was 97.4 ± 5.7%, the “% Remaining Day 0” value [2, 32] was 100 ± 5.5% and the “% Remaining Day 1” value [2, 32] was 94.3 ± 5.3%. The “% Remaining Day 0” value [2, 16] was 100 ± 6.1%, the “% Remaining Day 1” value [2, 16] was 36.8 ± 1.5% and the “% Remaining Day 0” value [2, 17] was 100 ± 4.2%. The “% Remaining Day 1” value [2, 17] was 87.7 ± 2.6%, the IC50 ([3]; read-out: IC50 values (nM), Monolayer (BLI)) was 240 nM and the IC50 ([3]; read-out: IC50 values (nM), Monolayer (Celltiter Blue)) was 245 nM. The “% Remaining Day 0” value ([7]; CYP/GSP poloxamer 188 micelles) was 100 ± 7.4%, the “% Remaining Day 1” value ([7]; CYP/GSP poloxamer 188 micelles) was 106.9 ± 3.4% and the “% Remaining Day 0” value [7, 33] was 100 ± 4.9%. The “% Remaining Day 1” value [7, 33] was 101.2 ± 2.3% and the IC50 [4] was 64.8 nM.

In the case of `CC(=O)O[C@H]1C(=O)[C@@]2(C)[C@H]([C@H](OC(=O)c3ccccc3)[C@]3(O)C[C@H](OC(=O)[C@H](O)[C@@H](NC(=O)c4ccccc4)c4ccccc4)C(C)=C1C3(C)C)[C@]1(OC(C)=O)CO[C@@H]1C[C@@H]2O` [Paclitaxel, paclitaxel], the IC50 ([1]; A549, free drugs in DMSO stock, 72 hours, n = 3, mean ± SD, two drug combinations molar ratio 1:1, three drug 5:5:1, read-out: IC50) is reported as 0.616 ± 0.418 µM, the “drug loaded” value [6, 23] is reported as 0.38 ± 0.12 mg/mL and the “drug loaded” value [6, 24] is reported as 0.01 ± 0.001 mg/mL. For the same compound, the “drug loaded” value ([6]; polymer 10 mg/ml, PTX + GSP micelles) was 0.87 ± 0.09 mg/mL, the “drug loaded” value [6, 25] was 0.014 ± 0.002 mg/mL and the “drug loaded” value [6, 26] was 0.63 ± 0.14 mg/mL. For the same compound, the “drug loaded” value ([6]; polymer 200 mg/ml, PTX + CYP + GSP micelles, listed as PTX) was 6.4 mg/mL and 6.41 ± 0.63 mg/mL, the “drug loaded” value [6, 30] was 0.01 ± 0.01 mg/mL and the “drug loaded” value ([6]; polymer 200 mg/ml, PTX + GSP micelles) was 3.49 ± 0.39 mg/mL. For the same compound, the “% Remaining Day 0” value [2, 10] was 100 ± 9.3%, the “% Remaining Day 1” value [2, 10] was 34.3 ± 3.1% and the “% Remaining Day 0” value [2, 11] was 100 ± 8.3%. For the same compound, the “% Remaining Day 1” value [2, 11] was 89.7 ± 5.2%, the “% Remaining Day 0” value [2, 31] was 100 ± 12.6% and the “% Remaining Day 1” value [2, 31] was 27.0 ± 2.9%. For the same compound, the “% Remaining Day 0” value [2, 32] was 100 ± 6.2%, the “% Remaining Day 1” value [2, 32] was 90.7 ± 5.1% and the “% Remaining Day 0” value [2, 14] was 100 ± 9.4%. The “% Remaining Day 1” value [2, 14] was 66.8 ± 4.1%, the “% Remaining Day 0” value [2, 15] was 100 ± 6.3% and the “% Remaining Day 1” value [2, 15] was 93.2 ± 4.9%. The “% Remaining Day 0” value [2, 16] was 100 ± 4.7%, the “% Remaining Day 1” value [2, 16] was 99.3 ± 2.2% and the “% Remaining Day 0” value [2, 17] was 100 ± 3.6%. The “% Remaining Day 1” value [2, 17] was 87.9 ± 2.7%, the IC50 [3, 19] was 13 nM and the IC50 [3, 20] was 12 nM. The IC50 [4, 21] was 8.7 nM, the “% w/w drug(s) @ 24 hr” value [8] was 63.4 ± 35.4 % w/w and the “Initial drug level in water” value [8] was 6.53 ± 0.31 mg/mL. For the same compound, the “Drug level @ 24 hrs in water” value ([8]; ambient temperature) was 4.11 ± 2.26 mg/mL.

In the case of `C=CCNC1=C2C[C@@H](C)C[C@H](OC)[C@H](O)[C@@H](C)/C=C(\C)[C@H](OC(N)=O)[C@@H](OC)/C=C\C=C(/C)C(=O)NC(=CC1=O)C2=O` [17-AAG, 17-allylamino-17-demethoxygeldanamycin], the water solubility [9] is listed as “about 0.1 mg/mL” and the “drug level in water” value [18] is listed as 0.21 mg/mL.
